Reference: PubChem BioAssay (NCI)
“And” between values parts separate entries of the source, which are not always exact repeats. Equal values may be shown once.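 Values below derive from 48-hour exposures of cells grown in 96-well plates, with endpoints linearly interpolated between the two concentrations bracketing the appropriate inhibition level. GI50: concentration for 50% inhibition of growth. TGI marks complete inhibition of growth.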 *1 amine or outer side, *2 acyl side, *3 side chain or, on linkers, in order; H or OH if unused. Where a SMILES comes first, the peptide text is derived from it. Bridges are numbered along the chain shown (N, C = ends). [ ]: non-standard residue; d: D form. ξ: configuration not given here. X4 = CCC(C)C(N[*:1])C(O)CC(=O)O[C@H](C(=O)C(C)C(=O)[*:2])C(C)C; NMeY = CN[C@@H](Cc1ccc(O)cc1)C(=O)O; X9 = O=C([C@@H]1CC(O)CN1[*:1])[*:2]; ξNMeL = CNC(CC(C)C)C(=O)O; ξT = CC(O)C(N)C(=O)O

Columns and labels:
Assay in all cases: NCI anticancer screen, dose series, 48 h
[1] = tested on: BT-549 breast
[2] = tested on: CAKI-1 renal
[3] = tested on: HT29 colon
[4] = tested on: MDA-MB-435
[5] = tested on: PC-3 prostate
[6] = tested on: SK-MEL-2 melanoma
[7] = tested on: SK-OV-3 ovarian
[8] = tested on: SR leukemia
[9] = tested on: TK-10 renal
[10] = tested on: A549 NSCLC

| Compound | TGI [1] | TGI [2] [µM] | TGI [3] | TGI [4] | TGI [5] | TGI [6] | TGI [7] | TGI [8] [µM] | TGI [9] | GI50 [10] [µM] | TGI [10] | GI50 [1] [µM] | GI50 [2] [µM] | GI50 [3] [µM] | GI50 [4] [µM] | GI50 [5] [µM] | GI50 [6] [µM] | GI50 [7] [µM] | GI50 [8] [µM] | GI50 [9] [µM] |
| --- | --- | --- | --- | --- | --- | --- | --- | --- | --- | --- | --- | --- | --- | --- | --- | --- | --- | --- | --- | --- |
| CCCCCCCCCCCCCCCCC(C(=O)O)C(O)(CC(=O)O)C(=O)O (stereo not given) | 51.3 µM | 46.3 | 45.4 µM | > 100 µM | 38.8 µM | 41.4 µM | 36.1 µM | 81 | > 100 µM |  |  |  |  |  |  |  |  |  |  |  |
| COc1ccc(C2CC(=O)Nc3c2c(C)nn3-c2nc3ccccc3[nH]2)cc1 (stereo not given) | 20 µM | 9.12 | > 30.4 µM | 6.84 µM | 48.9 µM | 9.43 µM | 7.83 µM | > 25.1 | > 38.9 µM | 3.04 | 15.1 µM | 3.33 | 2.96 | 3.47 | 2.55 | 3.21 | 3.45 | 3.23 | 2.96 | 4.08 |
| C#Cc1cccc(NC(=O)Nc2ccc(NC(=O)CCl)cc2)c1 | 24.1 µM | 36.2 | 36.3 µM | > 82.5 µM | 74.5 µM | > 82.5 µM | 33 µM | 26.7 | > 82.5 µM | > 82.5 | > 82.5 µM | 11.9 | 15.7 | 14.8 | 22.1 | 17.1 | > 82.5 | 15.5 | 9.79 | 21.8 |
| N#Cc1c(NC(=O)c2cccs2)[n+]([O-])c2ccccc2[n+]1[O-] | > 100 µM | > 100 | > 100 µM | > 100 µM | > 100 µM | > 100 µM | > 100 µM | > 100 | > 100 µM | > 100 | > 100 µM | > 100 | > 100 | > 100 | > 100 | 64.9 | > 100 | 26 | > 100 | > 100 |
| CC1C(=O)N=C2C(=CN(Cc3ccccc3)c3ccccc32)C(=O)N1C (stereo not given) | > 100 µM | > 100 | > 100 µM | > 100 µM | > 100 µM | > 100 µM |  | > 100 | > 100 µM |  | > 100 µM |  |  |  |  |  |  |  |  |  |
| Cc1c(C(=O)/C=C/c2ccc(O)cc2)nnn1-c1ccnc2c(C(F)(F)F)cccc12 | > 100 µM | > 100 | 30.1 µM | > 100 µM | > 100 µM | > 100 µM | 72.5 µM | 9.86 | 73.4 µM | 8.55 | > 100 µM | 60.2 | 28.6 | 3.36 | 10.8 | 7.88 | > 100 | 15.1 | 2.29 | 9.28 |
| CCC(C)C1NC(=O)C(NC(=O)C(CC(C)C)N(C)C(=O)[C@@H]2CC(O)CN2)C(C)OC(=O)[C@H](Cc2ccc(OC)cc2)N(C)C(=O)[C@@H]2CCCN2C(=O)[C@H](CC(C)C)NC(=O)C(C)C(=O)[C@H](C(C)C)OC(=O)CC1O (stereo not given in full) (H-[X9][ξNMeL][ξT][X4]LP[NMeY](Me); ester 3-C) | 0.0575 µM and 0.0866 µM | 2.65 | 1.18 µM and 0.159 µM | 0.0555 µM and 0.131 µM | 0.13 µM and 0.131 µM | 0.0496 µM and 0.0758 µM | 0.349 µM and 0.0464 µM | > 100 | 1.25 µM and 7.31 µM |  | 2.02 µM and 1 µM |  | 0.151 |  |  |  |  |  |  | 0.0873 |
| COc1nccc(-c2c(-c3ccc(F)cc3)ncn2C2CCC(O)CC2)n1 (stereo not given) | > 100 µM | > 100 | > 100 µM | > 100 µM | > 100 µM | > 100 µM | > 100 µM | > 100 | > 100 µM | 32.4 | > 100 µM | > 100 | 25.2 | 42.6 | 54.3 | > 100 | > 100 | 57.3 | 43 | 39.4 |
| S=C(Nc1ccccc1)c1ccccn1 | > 100 µM | > 100 | > 100 µM | > 100 µM | > 100 µM | > 100 µM | > 100 µM | > 100 | > 100 µM | > 100 | > 100 µM | 73.9 | 40.3 | 50.1 | 80.6 | 54.7 | > 100 | > 100 | 25.5 | > 100 |
| CCN(CC)c1ccc(/C=N/NC(=O)c2ccc(Nc3ccnc(C(F)(F)F)c3)cc2)c(O)c1 | > 34.9 µM | 2.07 | 1.68 µM | 7.79 µM | > 100 µM |  | 8.36 µM | 0.672 | > 100 µM | 0.439 | > 100 µM | 0.38 | 0.268 | 0.339 | 0.454 | 0.434 | 0.718 | 0.324 | 0.0862 | 0.42 |
| COC(=O)C1=CN(CC2=CC(=O)C(C)=CC2=O)C=C(C(=O)OC)C1c1cccc(OC)c1OC | > 100 µM | 29.7 | > 100 µM | 39.3 µM | 38.6 µM | 52.1 µM | > 61.5 µM | 13.8 | 27.1 µM | 13 | > 51.5 µM | 34.3 | 10.9 | 41.1 | 15.8 | 15.3 | 19.8 | 42.8 | 1.08 | 8.35 |
| COc1ccc(C2=NNC(c3ccc(-c4ccc(OC)cc4[N+](=O)[O-])o3)C2)cc1 (stereo not given) | 93.5 µM |  | > 100 µM | 91.3 µM | > 100 µM | > 100 µM | > 100 µM | > 100 | 46.3 µM | 39.5 | > 100 µM | 26.6 |  | 44.9 | 25.3 | 83.3 | > 100 | 49.7 | 20.2 | 14.8 |
| O=C(O)CC(Cc1ccc2c(c1)OCO2)C(=O)O (stereo not given) | > 100 µM |  | > 100 µM | > 100 µM | > 100 µM | > 100 µM | > 100 µM | > 100 | > 100 µM |  | > 100 µM |  |  |  |  |  |  |  |  |  |
| CC1(C)OC2C(CO)OC(n3ccc(=O)[nH]c3=O)C2O1 (stereo not given) | > 100 µM | > 100 |  | > 100 µM | > 100 µM | > 100 µM | > 100 µM | > 100 | > 100 µM |  | > 100 µM |  |  |  |  |  |  |  |  |  |
